# Experiments:
# [1] = test system: prostoglandin E2 (PGE2); conditions: 300 mg/day, one month; cited from earlier work
# [2] = test system: patients with Familial Adenomatous Polyposis (FAP); test: Randomized, double-blind phase III trial in FAP patients: FAP-related events (efficacy); type: in vivo, human; conditions: for Mean time to first FRE: Kaplan-Meier estimated
# Text: Patients were stratified by anatomic site with highest polyp burden and surgical status: (a) post colectomy with rectal or ileal pouch polyposis (longest projected time to first FRE); (b) with duodenal polyposis (intermediate projected time to first FRE); and (c) pre-colectomy (shortest projected time to first FRE) prior to randomization to minimize treatment imbalance.
# A stratified randomization procedure was used with stratification based on FAP-related time-to-first-event prognosis (see FIG. 1). The event prognosis groups were represented by 1) best (i.e., longest projected time to first FAP-related event)—rectal/pouch polyposis (Post-colectomy (≥3 years S/P IRA or IPAA with >10 polyps; any polyps >5 mm excised at baseline)), 2) intermediate—duodenal polyposis (Spigelman Stage 3 or 4 or Spigelman Stage 3 or 4 down-staged to Spigelman 1 or 2 within the past 6 months), and 3) worst—pre-colectomy. If a subject has two or more of these disease sites, the most severe prognosis stratum was assigned for randomization (e.g. worst>intermediate>best). Since an individual may have more than one disease site involved, the trial assessed time to any defined FAP-related event in the subject as a whole. In order to minimize potential treatment arm imbalance a centralized randomization process was used to balance among treatment groups within prognostic strata.
# Lower GI Endoscopy: Patients were evaluated via colonoscopy, flexible or rigid procto-sigmoidoscopy during the screening phase. Biopsies, ablations, and snare excisions at baseline were performed per the clinician's standard of care. If considered eligible based on inclusion criteria, a grossly normal mucosa biopsy was obtained for baseline polyamine measurement. Still and video documentation of the colon (vide infra) or the residual rectum or entire pouch was also obtained for archiving. Polyp size was determined by visual comparison with biopsy forceps that can measure 5.0-5.5 mm in the fully open position. All randomized patients with an intact colon or rectum/pouch had baseline and on-study lower GI endoscopy procedures as part of this trial.
# Upper GI Endoscopy: The duodenum was evaluated by forward-viewing and/or side-viewing gastroscopes (with still and video documentation with closed and open biopsy forceps near mucosa). All randomized patients with a duodenum had baseline and on-study UGI endoscopy as part of this trial. Subjects stratified to the duodenal group must have duodenal biopsies of all polyps 1 cm or larger to determine HGD and histology required for determining Stage 3 or 4 Spigelman status.
# FAP-related primary events by disease site were as follows: • 1. Pre-operative, intact colon: Disease progression indicating need for colectomy with IRA or total procto-colectomy • 2. Retained rectum or pouch events include one or more of the following: • a) Excisional intervention by endoscopic snare or trans-anal excision to remove any polyp ≥10 mm in size (per pathology report) and/or pathologic evidence of high grade dysplasia. • b) Disease progression indicating need for proctectomy or pouch resection • 3. Duodenal disease includes the following: • a) Progression in Spigelman Stage to more advanced stage (Stage 2, 3 or 4) • b) Disease progression indicating need for excisional intervention (sub-mucosal resection, trans-duodenal excision, ampullectomy, duodenectomy, Whipple procedure) • c) Development of cancer
# At six month intervals (+/−two weeks), subjects underwent repeat upper and lower endoscopy. […] Video recordings of all procedures and qualitative assessments were compared to the exam 6 months prior.
# [3] = test system: tumor putrescine levels; conditions: eflornithine infusion, rat-tumor model; cited from earlier work
# [4] = test system: patients with Familial Adenomatous Polyposis (FAP); test: Randomized, double-blind phase III trial in FAP patients: safety (adverse events); conditions: for Treatment-related serious adverse events: 1 patient each
# [5] = disease site colon, number of subjects
# [6] = disease site duodenum, number of subjects
# [7] = disease site rectum and pouch, number of subjects
# [8] = post-colectomy, rectal/ileal pouch stratum
smiles,measurement,setting,value
CC(C)Cc1ccc(C(C)C(=O)O)cc1 (stereo not shown) [ibuprofen],PGE2 levels in flat mucosa,[1],significant decrease
"NCCCC(N)(C(=O)O)C(F)F (stereo not shown) [Eflornithine, 2,5-diamino-2-(difluoromethyl)pentanoic acid]",Kaplan-Meier estimated mean time to first FRE,[2]; ITT population,21.8 months
same,Event-free rate,"[2]; ITT population, cumulative",59.6%
same,"FREs occurred, percent of patients","[2]; ITT population, cumulative",40.4%
same,"Surgical FAP-related events, Colon: Event-free proportion",[2]; disease site colon,76.9%
same,"Surgical FAP-related events, Colon: Colectomy",[2]; [5],0
same,"Surgical FAP-related events, Colon: Disease progression",[2]; [5],3
same,"Surgical FAP-related events, Duodenum: Event-free proportion",[2]; disease site duodenum,72.7%
same,"Surgical FAP-related events, Duodenum: Disease progression",[2]; [6],3
same,"Surgical FAP-related events, Duodenum: Excisional intervention",[2]; [6],3
same,"Surgical FAP-related events, Duodenum: Spigelman stage progression",[2]; [6],12
same,"Surgical FAP-related events, Rectum and Pouch: Event-free proportion",[2]; disease site rectum and pouch,87.2%
same,"Surgical FAP-related events, Rectum and Pouch: Disease progression",[2]; [7],5
same,"Surgical FAP-related events, Rectum and Pouch: Proctectomy/pouch resection",[2]; [7],1
same,FRE type: Duodenal excision,[2]; duodenal polyposis stratum,2
same,FRE type: Duodenal excision and Spigelman stage progression,[2]; duodenal polyposis stratum,1
same,FRE type: Pouch resection,[2]; duodenal polyposis stratum,2
same,FRE type: Spigelman stage progression,[2]; duodenal polyposis stratum,7
same,FRE type: ≥10 mm polyp removed in rectum/pouch,[2]; duodenal polyposis stratum,1
same,"Patients with FRE, %",[2]; duodenal polyposis stratum,(39.4) %
same,Total FRE,[2]; duodenal polyposis stratum,13
same,Mean time to first FRE,[2]; duodenal polyposis stratum,21.7 months
same,Risk reduction versus combination,"[2]; duodenal polyposis stratum, combination relative to the arm named",24%
same,"Patients with FRE, %","[2]; duodenal polyposis stratum, listed as eflornithine",39.4%
same,Progression of lower gastrointestinal polyposis: surgeries,"[2]; human, in vivo",1
same,Patients with duodenal polyposis progression who underwent duodenal excisional procedures,[2]; number of patients,3
same,FRE type: Pouch resection,[2]; [8],2
same,FRE type: Proctocolectomy,[2]; [8],1
same,FRE type: Spigelman stage progression,[2]; [8],1
same,FRE type: ≥10 mm polyp removed in rectum/pouch,[2]; [8],1
same,"Patients with FRE, %",[2]; [8],(41.7) %
same,Total FRE,[2]; [8],5
same,Mean time to first FRE,[2]; [8],15.7 months
same,Risk reduction versus combination,"[2]; post-colectomy, rectal/ileal pouch stratum, combination relative to the arm named",None
same,"Patients with FRE, %","[2]; post-colectomy, rectal/ileal pouch stratum, listed as eflornithine",41.7%
same,FRE type: Colectomy,[2]; pre-colectomy stratum,2
same,FRE type: Colectomy and Spigelman stage progression,[2]; pre-colectomy stratum,1
same,FRE type: Spigelman stage progression,[2]; pre-colectomy stratum,2
same,"Patients with FRE, %",[2]; pre-colectomy stratum,(41.7) %
same,Total FRE,[2]; pre-colectomy stratum,5
same,Mean time to first FRE,[2]; pre-colectomy stratum,19.7 months
same,"Patients with FRE, %","[2]; pre-colectomy stratum, listed as eflornithine",41.7%
same,Risk reduction versus combination,"[2]; pre-colectomy stratum, risk reduction for FRE of the combination relative to the arm named",80%
same,Event Rate of FAP-related Surgery Events in Lower GI,[2]; subjects with lower GI anatomy,8/57 (14%)
same,Lower GI surgery events: Need colectomy,[2]; subjects with lower GI anatomy,3
same,Lower GI surgery events: Need pouch resection,[2]; subjects with lower GI anatomy,4
same,Lower GI surgery events: Need proctectomy,[2]; subjects with lower GI anatomy,1
same,Lower GI surgery events: Total Surgical Events,[2]; subjects with lower GI anatomy,8
same,Progression of lower gastrointestinal polyposis: polypectomies,[2]; ≥10 mm in size and/or high grade dysplasia,2
same,Decrease in tumor putrescine levels,[3],90%
same,"Discontinuations due to AEs, number of patients",[4],5 patients
same,"Discontinuations due to AEs, percent of patients",[4],8.8%
same,TRAE reported by % of patients,[4],55.4%
same,Treatment-related hearing adverse events: Hearing loss N,[4],1
same,Treatment-related hearing adverse events: Tinnitus N,[4],1
same,Treatment-related serious adverse events,[4],stroke
same,Treatment-related serious adverse events,[4]; listed as CPP-1X,Stroke
same,Death,[4]; safety population,0 n (%)
same,Number of patients discontinuing due to a TRAE,[4]; safety population,3 (5.4) n (%)
same,Number of patients reporting TEAEs,[4]; safety population,49 (87.5) n (%)
same,Number of patients reporting TEAEs ≥ Grade 3,[4]; safety population,17 (30.4) n (%)
same,Number of patients reporting TRAE: Abdominal distension,[4]; safety population,4 (7.1) n (%)
same,Number of patients reporting TRAE: Abdominal pain,[4]; safety population,4 (7.1) n (%)
same,Number of patients reporting TRAE: Alopecia,[4]; safety population,0 n (%)
same,Number of patients reporting TRAE: Decreased appetite,[4]; safety population,3 (5.4) n (%)
same,Number of patients reporting TRAE: Depression,[4]; safety population,1 (1.8) n (%)
same,Number of patients reporting TRAE: Diarrhea,[4]; safety population,5 (8.9) n (%)
same,Number of patients reporting TRAE: Dizziness,[4]; safety population,3 (5.4) n (%)
same,Number of patients reporting TRAE: Dyspepsia,[4]; safety population,3 (5.4) n (%)
same,Number of patients reporting TRAE: Fatigue,[4]; safety population,3 (5.4) n (%)
same,Number of patients reporting TRAE: Flatulence,[4]; safety population,3 (5.4) n (%)
same,Number of patients reporting TRAE: Frequent bowel movements,[4]; safety population,3 (5.4) n (%)
same,Number of patients reporting TRAE: Gastritis erosive,[4]; safety population,0 n (%)
same,Number of patients reporting TRAE: Headache,[4]; safety population,8 (14.3) n (%)
same,Number of patients reporting TRAE: Hematochezia,[4]; safety population,4 (7.1) n (%)
same,Number of patients reporting TRAE: Nausea,[4]; safety population,8 (14.3) n (%)
same,Number of patients reporting TRAE: Pruritus,[4]; safety population,2 (3.6) n (%)
same,Number of patients reporting TRAE: Rash,[4]; safety population,0 n (%)
same,Number of patients reporting TRAE: Rectal hemorrhage,[4]; safety population,3 (5.4) n (%)
same,Number of patients reporting TRAE: Thrombocytopenia,[4]; safety population,1 (1.8) n (%)
same,Number of patients reporting TRAE: Tinnitus,[4]; safety population,1 (1.8) n (%)
same,Number of patients reporting TRAE: Upper abdominal pain,[4]; safety population,2 (3.6) n (%)
same,Number of patients reporting TRAE: Vomiting,[4]; safety population,5 (8.9) n (%)
same,Number of patients reporting TRAEs,[4]; safety population,31 (55.4) n (%)
same,Number of patients reporting TRSAEs,[4]; safety population,1 (1.8) n (%)

# Source: patent publication US10945981B2, “Methods for treating familial adenomatous polyposis” (CANCER PREVENTION PHARMACEUTICALS, INC., priority 2019, dated 2021)
